Literature values as cited in patent publication US20250262218A1, “COMPOSITIONS, FORMULATIONS AND METHODS FOR STIMULATING RESPIRATION” (Auros Pharma LLC, priority 2024, published 2025).
Where two headings read alike, the source gives them in different places.

## CCN1CC(CCN2CCOCC2)C(c2ccccc2)(c2ccccc2)C1=O (stereo not shown) [doxapram, 1-ethyl-4-(2-morpholinoethyl)-3,3-diphenyl-2-pyrrolidinone]
In alcohol
  solubility: sparingly soluble
In ether
  solubility: practically insoluble
In water
  solubility: soluble
Light and air
  stability: stable in light and air
